The source of these data is ChEMBL document CHEMBL4823263, “Discovery of 2-(3-(3-Carbamoylpiperidin-1-yl)phenoxy)acetic Acid Derivatives as Novel Small-Molecule Inhibitors of the β-Catenin/B-Cell Lymphoma 9 Protein-Protein Interaction” (J Med Chem, 2021).

In data set [1] the target is beta-catenin-B-cell lymphoma 9 protein complex (Homo sapiens) (UniProt P35222+O00512). Kind of data set: Disruption of beta-catenin/N-terminal biotinylated human BCL9 HD2 (350 to 375 residues) protein-protein interaction in human SW480 cells incubated for 1 hr followed by N-terminal biotinylated human BCL9 HD2 addition and measured after 2 hrs by pull-down assay. The format is cell-based. The conditions noted are these: time 3.0 hrs.

In data set [2] the test system is SW480. Briefly: Antiproliferative activity against human SW480 cells harboring beta-catenin pcDNA3.1 vector incubated for 72 hrs by MTS assay. The format is functional, cell-based. The conditions noted are these: SW480, 72 h.
In data set [3] the test system is SW480. Kind of data set: Inhibition of Wnt/beta-catenin transactivation signalling in human SW480 cells harboring mutant tcf4 binding sites assessed as relative activity at 3.125 uM incubated for 24 hrs by FOPFlash luciferase assay relative to control. The format is cell-based. Further details: scale not given: the % may be the effect or the level left.
The subject of a further data set is MDA-MB-468. Briefly: Antiproliferative activity against human MDA-MB-468 cells incubated for 72 hrs by MTS assay. The format is functional, cell-based. The conditions noted are these: MDA-MB-468, 72 h.
The target of data set [4] is Protein Wnt-3a (Mus musculus) (UniProt P27467). Kind of data set: Inhibition of mouse wnt3a expressed in human MDA-MB-231 cells assessed as HPRT level at 30 uM incubated for […] by quantitative real-time PCR analysis relative to control. The format is cell-based. Also noted: scale not given: the % may be the effect or the level left.
Chain of Protein Wnt-3a (Mus musculus) (P27467 whole entry): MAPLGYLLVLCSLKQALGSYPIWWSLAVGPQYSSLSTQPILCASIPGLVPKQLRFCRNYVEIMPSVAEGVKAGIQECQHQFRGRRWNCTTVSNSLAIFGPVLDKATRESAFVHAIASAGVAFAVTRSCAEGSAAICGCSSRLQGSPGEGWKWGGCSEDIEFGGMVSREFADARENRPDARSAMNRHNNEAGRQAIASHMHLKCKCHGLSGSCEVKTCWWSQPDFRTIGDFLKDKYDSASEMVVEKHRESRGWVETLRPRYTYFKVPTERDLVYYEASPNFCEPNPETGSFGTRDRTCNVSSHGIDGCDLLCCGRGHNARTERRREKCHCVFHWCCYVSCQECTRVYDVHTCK
Data set [5] has the same target. Kind of data set: Inhibition of mouse wnt3a expressed in human MDA-MB-231 cells assessed as Axin2 level at 30 uM incubated for […] by quantitative real-time PCR analysis relative to control. The format is cell-based. Further details: scale not given: the % may be the effect or the level left. (In general: Real-time PCR tracks product formation cycle by cycle.)

In data set [6] the target is Protein Wnt-3a (Homo sapiens) (UniProt P56704). Briefly: Inhibition of Wnt3a in human SW480 cells assessed as cyclin D1 level at 30 uM incubated for […] by quantitative real-time PCR analysis relative to control. The format is cell-based. Further details: scale not given: the % may be the effect or the level left.
Chain of Protein Wnt-3a (Homo sapiens) (P56704 whole entry): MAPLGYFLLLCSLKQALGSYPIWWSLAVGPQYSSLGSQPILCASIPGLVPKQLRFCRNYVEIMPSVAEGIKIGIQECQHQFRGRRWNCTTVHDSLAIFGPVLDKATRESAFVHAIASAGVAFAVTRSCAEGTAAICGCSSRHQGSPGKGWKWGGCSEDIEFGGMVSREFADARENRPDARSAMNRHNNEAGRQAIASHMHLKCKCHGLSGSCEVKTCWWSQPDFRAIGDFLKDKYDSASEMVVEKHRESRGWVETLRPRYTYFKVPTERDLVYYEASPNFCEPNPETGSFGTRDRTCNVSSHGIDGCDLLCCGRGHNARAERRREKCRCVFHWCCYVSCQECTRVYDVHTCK
A short description of data set [7]: Downregulation of HPRT in human MDA-MB-231 cells assessed as HPRT level at 30 uM incubated for […] by quantitative real-time PCR analysis relative to control. The format is ADME, cell-based. Conditions: mda-mb-231, 30 µM.
Data set [8] has as its target Protein Wnt-3a (Homo sapiens) (UniProt P56704). Briefly: Inhibition of Wnt3a in human SW480 cells assessed as Axin2 level at 10 uM incubated for […] by quantitative real-time PCR analysis relative to control. The format is cell-based. Further details: scale not given: the % may be the effect or the level left.
In data set [9] the target is Protein Wnt-3a (Mus musculus) (UniProt P27467). Briefly: Inhibition of mouse wnt3a expressed in human MDA-MB-231 cells assessed as cyclin D1 level at 3.3 uM incubated for […] by quantitative real-time PCR analysis relative to control. Also noted: scale not given: the % may be the effect or the level left. The format is cell-based.
For data set [10] the target is unchanged. Briefly: Inhibition of mouse wnt3a expressed in human MDA-MB-231 cells assessed as LEF1 level at 3.3 uM incubated for […] by quantitative real-time PCR analysis relative to control. The format is cell-based. Also noted: scale not given: the % may be the effect or the level left.
Data set [11] can be described thus: Downregulation of HPRT level in human SW480 cells at 30 uM incubated for […] by quantitative real-time PCR analysis relative to control. The format is ADME, cell-based. The conditions noted are these: sw480, 30 µM.
Data set [12] is described as follows: Downregulation of HPRT level in human SW480 cells at 10 uM incubated for […] by quantitative real-time PCR analysis relative to control. The conditions noted are these: sw480, 10 µM. The format is ADME, cell-based.
The target in data set [13] is Protein Wnt-3a (Homo sapiens) (UniProt P56704). Briefly: Inhibition of Wnt3a in human SW480 cells assessed as cyclin D1 level at 3.3 uM incubated for […] by quantitative real-time PCR analysis relative to control. Further details: scale not given: the % may be the effect or the level left. The format is cell-based.
The target is the same in data set [14]. Kind of data set: Inhibition of Wnt3a in human SW480 cells assessed as LEF1 level at 10 uM incubated for […] by quantitative real-time PCR analysis relative to control. The format is cell-based. Further details: scale not given: the % may be the effect or the level left.
Data set [15] is described as follows: Selectivity ratio of IC50 for human SW480 cells harboring beta-catenin pcDNA3.1 vector to IC50 for human SW480 cells harboring empty pcDNA3.1 vector.
Data set [16] addresses Protein Wnt-3a (Homo sapiens) (UniProt P56704). Kind of data set: Inhibition of Wnt3a in human SW480 cells assessed as LEF1 level at 30 uM incubated for […] by quantitative real-time PCR analysis relative to control. Further details: scale not given: the % may be the effect or the level left. The format is cell-based.
The target is the same in data set [17]. Briefly: Inhibition of Wnt3a in human SW480 cells assessed as Axin2 level at 30 uM incubated for […] by quantitative real-time PCR analysis relative to control. The format is cell-based. Also noted: scale not given: the % may be the effect or the level left.
The target in data set [18] is Protein Wnt-3a (Mus musculus) (UniProt P27467). Briefly: Inhibition of mouse wnt3a expressed in human MDA-MB-231 cells assessed as Axin2 level at 3.3 uM incubated for […] by quantitative real-time PCR analysis relative to control. The format is cell-based. Further details: scale not given: the % may be the effect or the level left.

The IC50 is the concentration at which inhibition is half-maximal. For `CC(C)(Oc1cccc(N2CCC[C@H](C(=O)N(Cc3ccc(-c4cccs4)cc3)C3CC3)C2)c1)C(=O)NS(=O)(=O)c1ccc(C#N)cc1`, the Activity entry in data set [1] was “Dose-Dependent Effect”; in the data set on SW480 [3], 99%; in data set [4] it was 99%; in [5], 50%; in data set [6], 31%; in data set [7], 99%. The Activity in data set [8] worked out at 72%; in data set [9] it was 94%; in [10], 87%; in data set [11], 99%; in data set [12], 102%; in [13], 53%. Besides, the Activity in [14] came out at 77%; in data set [16], 76%; in data set [17] it was 42%; in data set [18], 69%. In addition, the IC50 came out at 86 µM in the data set on SW480 [2] and 17.8 µM in the data set with MDA-MB-468. For the same compound, the “Ratio IC50” value in data set [15] came to 4.
